Measured values as given in ChEMBL document CHEMBL1152749, “Haemolytic activity, cytotoxicity and membrane cell permeabilization of semi-synthetic and natural lupane- and oleanane-type saponins” (Bioorg Med Chem, 2009).

Tests used:
A549 = experiment: Cell membrane permeabilization in human A549 cells assessed as drug level causing decrease in calcein fluorescence; assay type: ADME, cell-based
[1] = Toxicity in sheep erythrocytes assessed as induction of hemolysis; assay type: cell-based, Ovis aries, Erythrocyte; details: read-out: HD50 (the source's name)
DLD-1 = experiment: Cell membrane permeabilization in human DLD1 cells assessed as drug level causing decrease in calcein fluorescence; assay type: ADME, cell-based
[2] = Cell membrane permeabilization in human WS1 cells assessed as drug level causing decrease in calcein fluorescence; assay type: ADME, cell-based

| IC50 (A549) [µM] | IC50 (DLD-1) [µM] | IC50 [2] [µM] | Structure (SMILES) | HC50 [1] [µM] |
| --- | --- | --- | --- | --- |
| > 200 | > 200 | > 200 | C=C(C)[C@@H]1CC[C@]2(CO)CC[C@]3(C)[C@H](CC[C@@H]4[C@@]5(C)CC[C@H](O[C@H]6O[C@H](CO)[C@@H](O)[C@H](O)[C@@H]6O)C(C)(C)[C@@H]5CC[C@]43C)[C@@H]12 | > 100 |
| > 200 | > 200 | > 200 | C=C(C)[C@@H]1CC[C@]2(C(=O)O)CC[C@]3(C)[C@H](CC[C@@H]4[C@@]5(C)CC[C@H](O[C@H]6O[C@H](CO)[C@@H](O)[C@H](O)[C@@H]6O)C(C)(C)[C@@H]5CC[C@]43C)[C@@H]12 | > 100 |
| > 200 | > 200 | > 200 | C=C(C)[C@@H]1CC[C@]2(C(=O)O)CC[C@]3(C)[C@H](CC[C@@H]4[C@@]5(C)CC[C@H](O[C@@H]6OC[C@@H](O)[C@H](O)[C@H]6O)C(C)(C)[C@@H]5CC[C@]43C)[C@@H]12 | > 100 |
| > 200 | > 200 | > 200 | C=C(C)[C@@H]1CC[C@]2(CO[C@@H]3O[C@H](CO)[C@@H](O)[C@H](O)[C@H]3O)CC[C@]3(C)[C@H](CC[C@@H]4[C@@]5(C)CC[C@H](O[C@@H]6O[C@@H](C)[C@H](O)[C@@H](O)[C@H]6O)C(C)(C)[C@@H]5CC[C@]43C)[C@@H]12 | > 100 |
| > 200 | > 200 | > 200 | C=C(C)[C@@H]1CC[C@]2(C(=O)O[C@@H]3O[C@H](CO)[C@@H](O)[C@H](O)[C@H]3O)CC[C@]3(C)[C@H](CC[C@@H]4[C@@]5(C)CC[C@H](O[C@@H]6O[C@H](CO)[C@@H](O)[C@H](O)[C@H]6O)C(C)(C)[C@@H]5CC[C@]43C)[C@@H]12 | > 100 |
| > 200 | > 200 | > 200 | C=C(C)[C@@H]1CC[C@]2(C(=O)O[C@@H]3O[C@H](CO)[C@@H](O)[C@H](O)[C@H]3O)CC[C@]3(C)[C@H](CC[C@@H]4[C@@]5(C)CC[C@H](O)C(C)(C)[C@@H]5CC[C@]43C)[C@@H]12 | > 100 |
| > 200 | > 200 | > 200 | C=C(C)[C@@H]1CC[C@]2(CO[C@@H]3O[C@H](CO)[C@@H](O)[C@H](O)[C@H]3O)CC[C@]3(C)[C@H](CC[C@@H]4[C@@]5(C)CC[C@H](O[C@@H]6O[C@H](CO)[C@@H](O)[C@H](O)[C@H]6O)C(C)(C)[C@@H]5CC[C@]43C)[C@@H]12 | > 100 |
| > 200 | > 200 | > 200 | C=C(C)[C@@H]1CC[C@]2(CO[C@@H]3O[C@@H](C)[C@H](O)[C@@H](O)[C@H]3O)CC[C@]3(C)[C@H](CC[C@@H]4[C@@]5(C)CC[C@H](O[C@@H]6O[C@@H](C)[C@H](O)[C@@H](O)[C@H]6O)C(C)(C)[C@@H]5CC[C@]43C)[C@@H]12 | > 100 |
| > 200 | > 200 | > 200 | C=C(C)[C@@H]1CC[C@]2(C(=O)O[C@@H]3O[C@H](CO)[C@@H](O)[C@H](O)[C@H]3O)CC[C@]3(C)[C@H](CC[C@@H]4[C@@]5(C)CC[C@H](O[C@@H]6O[C@@H](C)[C@H](O)[C@@H](O)[C@H]6O)C(C)(C)[C@@H]5CC[C@]43C)[C@@H]12 | > 100 |
| > 200 | > 200 | > 200 | C=C(C)[C@@H]1CC[C@]2(C(=O)O[C@@H]3O[C@@H](C)[C@H](O)[C@@H](O)[C@H]3O)CC[C@]3(C)[C@H](CC[C@@H]4[C@@]5(C)CC[C@H](O[C@@H]6O[C@@H](C)[C@H](O)[C@@H](O)[C@H]6O)C(C)(C)[C@@H]5CC[C@]43C)[C@@H]12 | 85 |
